Laboratory results reported in patent publication US6900200B2, “Tricyclic hydroxy carboxamides and derivatives thereof tocolytic oxytocin receptor antagonists” (Wyeth, priority 2001, dated 2005).

Molecular target: T1, human oxytocin receptor (Homo sapiens, UniProt P30559)
T1 construct: host or cells: CHO cells, pcDNA3.1 vector
T1 sequence (P30559 1-389): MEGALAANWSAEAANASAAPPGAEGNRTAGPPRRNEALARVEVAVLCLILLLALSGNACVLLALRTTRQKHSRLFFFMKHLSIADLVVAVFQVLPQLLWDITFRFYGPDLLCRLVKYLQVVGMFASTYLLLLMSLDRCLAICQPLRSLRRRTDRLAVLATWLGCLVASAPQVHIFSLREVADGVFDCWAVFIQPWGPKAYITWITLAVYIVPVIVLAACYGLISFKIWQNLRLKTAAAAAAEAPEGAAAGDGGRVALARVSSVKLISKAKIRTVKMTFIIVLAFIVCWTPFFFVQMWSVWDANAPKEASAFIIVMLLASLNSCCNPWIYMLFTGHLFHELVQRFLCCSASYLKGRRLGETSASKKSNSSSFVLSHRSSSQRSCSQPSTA
Test: Oxytocin binding in CHO cell membranes expressing human oxytocin receptors ([3H]oxytocin radioligand binding)
Conditions: @ 100 nM, read-out: OT % inhibition @ 100 nM
Source text: Oxytocin Binding in Chinese Hamster Ovary Cell Membranes Expressing Human Oxytocin Receptors
Chinese Hamster Ovary (CHO) cells stably transfected with the human oxytocin receptor (cf. Tanizawa et al., U.S. Pat. No. 5,466,584 (1995) to Rohto Pharmaceutical Co. Ltd., Osaka, Japan) were obtained from M. Thibonnier, Case Western Reserve University School of Medicine, Cleveland, Ohio.
A. Passaging and Amplification of Cells
CHO cells transfected with the human oxytocin receptors obtained from M. Thibonnier (pcDNA3.1 vector) are allowed to grow to confluency (approx. >90%) in T-150 flasks under sterile conditions, in a cell culture medium of F-12 Nutrient Mixture (HAM) with L-glutamine (Gibco Cat. #11765-054) containing 15 mM HEPES (Gibco Cat. #15630-080), 1% antibiotic/antimycotic (add 5 mL 100×, Gibco Cat. #15240-062 per 500 mL F-12), 400 μg/mL of Geneticin (add 4 mL of 50 mg/mL per 500 mL F-12) and 10% Fetal Bovine Serum (Qualified, heat inactivated, Gibco Cat. #16140-063). The medium is removed by aspiration and the cells are washed with 10 mL of Hank's Balanced Salt solution (Gibco Cat. #14175-095). The salt solution is removed by aspiration and the cells trypsinized with 5 mL of trypsin-EDTA (0.05% trypsin, 0.53 mM EDTA-4Na, Gibco Cat. #25300-070) for 1 min. The trypsin is removed by aspiration and the cells dislodged by tapping. Cell Culture medium (e.g. 30 mL for 1:30 split) is immediately added and mixed well to inactivate trypsin. 1 mL of detached cells is added to new culture flasks containing fresh Cell Culture medium (e.g. into 25 mL per T-150 flask), and mixed gently. The cells are incubated at 37° C. in 5% CO2. The medium is changed at 3 to 4 days interval (or as appropriate). The cells grow to confluency (approx. >75%-95%) within 7-8 days. All steps are done under sterile conditions.
The cells are washed twice gently with Hank's Balanced Salt solution (e.g., use 10 mL per T-1 50 flask). The excess solution is removed and the cells bathed for 15-30 min. in an enzyme-free Cell Dissociation Buffer (e.g., use 8 mL Hank's Based, Gibco Cat. #13150-016 per T-150 flask) until cells are loosened. The contents are transferred to centrifuge tubes (50 mL size) kept in ice bath. All subsequent steps are done at 4° C. The tubes are centrifuged at 300×g for 15 min (1380 rpm on SORVAL, Model RT6000D, using rotor for 50 mL tubes). The supernatant is discarded and the cells suspended in homogenizing buffer (10 mM Tris-HCl containing 0.25 M sucrose and 1 mM EDTA, pH 7.4) ensuring that the volume of the buffer is about ten times the volume of the cell pellet. The cells are pooled into a centrifuge tube (50 mL) and homogenized with a Polytron at setting 6 for 10 sec. The homogenate is transferred into a Potter-Elvjehm homogenizer and homogenized with 3 strokes. The homogenate is centrifuged at 1500×g for 10 min at 4° C. (3100 rpm using SORVAL, model RT6000D, using rotor for 50 mL tubes). The pellet is discarded. The supernatant is centrifuged at 100,000×g for 60 min. at 4° C. (Beckman L8-80M ultracentrifuge; spin at 37,500 rpm with rotor type 70 Ti for 50 mL tubes; 38,000 rpm with type 80Ti for 15 mL tubes; or 35,800 rpm with rotor type 45Ti). The supernantant is discarded and the pellet suspended in 3 to 4 mL of Tris buffer (50 mM TRIS—HCl, pH 7.4). The protein content is estimated by the Bradford or Lowry method. The volume of the membrane suspension is adjusted with the membrane buffer (50 mM Tris-HCl containing 0.1% BSA and 0.1 mM PMSF) to give 3.0 mg/mL (or as appropriate) of protein. The membranes are aliquoted and stored at −70° C.
C. Radioligand Binding Assay
In wells of a 96-well format microtiter plate, is added 90, 110 or 130 μL (to make up a final volume of 200 μL) of assay buffer containing 50 mM of Tris-HCl (pH 7.4), […], 1 mg % aprotinin, 1 mg % leupeptin, 2 mg % 1,10-phenanthroline, 10 mg % trypsin inhibitor, and 0.1 mM PMSF. […]

Compound	inhibition at 0.1 µM [%]
O=C(c1ccc2n1Cc1ccccc1N(C(=O)c1ccc(-c3cccc4ccccc34)cc1Cl)C2)N1CCN(CCO)CC1 [Example 25, 2-{4-[10-{[2-Chloro-4-(naphthalen-1-yl)phenyl]carbonyl}-(10,11-dihydro-5H-pyrrolo[2,1-c][1,4]benzodiazepin-3-yl)carbonyl]piperazine-1-yl}-1-hydroxyethane]	20
COc1cccc(-c2cc(OC)c(C(=O)N3Cc4ccc(C(=O)N5CCN(CCO)CC5)n4Cc4ccccc43)cc2Cl)c1 [Example 49, {10-[(6-Chloro-3,3′-dimethoxy[1,1′-biphenyl]-4-yl)carbonyl]-10,11-dihydro-5H-pyrrolo[2,1-c][1,4]benzodiazepin-3-yl}[4-(2-hydroxyethyl)-1-piperazinyl]methanone]	81
COc1cc2c(cc1OC)N(C(=O)c1ccc(-c3ccccc3OC)c(C)c1)Cc1ccc(C(=O)N(C)C[C@H](O)[C@@H](O)[C@H](O)[C@H](O)CO)n1C2 [Example 37, 7,8-Dimethoxy-10-[(2′-methoxy-2-methyl-[1,1′-biphenyl]-4-yl)carbonyl]-10,11-dihydro-5H-pyrrolo[2,1-c][1,4]benzodiazepine-3-carboxylic acid methyl-[(2S, 3R, 4R, 5R)-2,3,4,5,6-pentahydroxy-hexyl)-amide]	53
COc1cc2c(cc1OC)N(C(=O)c1ccc(-c3ccccc3C(F)(F)F)c(C)c1)Cc1ccc(C(=O)N(CCO)CCO)n1C2 [Example 19, N,N-Bis(2-Hydroxyethyl)-7,8-dimethoxy-10-{[2-methyl-2′-trifluoromethyl-[1,1′-biphenyl]-4-yl]carbonyl}-10,11-dihydro-5H-pyrrolo[2,1-c][1,4]benzodiazepine-3-carboxamide]	27
Cc1ccccc1-c1ccc(C(=O)N2Cc3ccc(C(=O)N4CCN(CCO)CC4)n3Cc3ccccc32)cc1C [Example 46, {10-[(2,2′-Dimethyl[1,1′-biphenyl]-4-yl)carbonyl]-10,11-dihydro-5H-pyrrolo[2,1-c][1,4]benzodiazepin-3-yl}[4-(2-hydroxyethyl)-1-piperazinyl]methanone]	97
COc1ccccc1-c1ccc(C(=O)N2Cc3ccc(C(=O)N(C)C[C@H](O)CO)n3Cc3ccccc32)cc1C (single isomer, unassigned) [Example 15]	101
COc1cc(C(=O)N2Cc3ccc(C(=O)N4CCN(CCO)CC4)n3Cc3ccccc32)ccc1-c1ccccc1C [Example 42, [4-(2-Hydroxyethyl)-1-piperazinyl]{10-[(2-methoxy-2′-methyl[1,1′-biphenyl]-4yl)carbonyl]-10,11-dihydro-5H-pyrrolo[2,1-c][1,4]benzodiazepin-3-yl}methanone]	89
COc1ccccc1-c1ccc(C(=O)N2Cc3ccc(C(=O)N4CCN(CCO)CC4)n3Cc3ccccc32)cc1 [Example 47, [4-(2-Hydroxyethyl)-1-piperazinyl]{10-[(2′-methoxy[1,1′-biphenyl]-4-yl)carbonyl]-10,11-dihydro-5H-pyrrolo[2,1-c][1,4]benzodiazepin-3-yl}methanone]	55
Cc1cc(C(=O)N2Cc3ccc(C(=O)N4CCN(CCO)CC4)n3Cc3ccccc32)ccc1-c1ccccc1C(F)(F)F [Example 48, [4-(2-Hydroxyethyl)-1-piperazinyl](10-{[2-methyl-2′-(trifluoromethyl)[1,1′-biphenyl]-4-yl)carbonyl}-10,11-dihydro-5H-pyrrolo[2,1-c][1,4]benzodiazepin-3-yl)methanone]	79

Same assay, conditions: value printed in parentheses, read-out: OT (IC50)

Compound	IC50 [nM]
Cc1cc(C(=O)N2Cc3ccc(C(=O)N4CCN(C[C@H](O)CO)CC4)n3Cc3ccccc32)ccc1-c1ccccc1C(F)(F)F [Example 5, (2S)-3-{4-[(10-{[2-Methyl-2′-trifluoromethyl-[1,1′-biphenyl]-4-yl]carbonyl}-10,11-dihydro-5H-pyrrolo[2,1-c][1,4]benzodiazepin-3-yl)carbonyl]piperazin-1-yl}propane-1,2-diol]	35.8
Cc1cc(C(=O)N2Cc3ccc(C(=O)N(CCO)CCO)n3Cc3ccccc32)ccc1-c1ccccc1C(F)(F)F [Example 1, 10-[(2-Methyl-2′-trifluoromethyl-[1,1′-biphenyl]-4-yl)carbonyl]-10,11-dihydro-5H-pyrrolo[2,1-c][1,4]benzodiazepine-3-carboxylic acid bis-(2-hydroxy-ethyl)-amide]	1.37
Cc1cc(C(=O)N2Cc3ccc(C(=O)N(C)C[C@H](O)[C@@H](O)[C@H](O)[C@H](O)CO)n3Cc3ccccc32)ccc1-c1ccccc1C(F)(F)F [Example 4, 10-[(2-Methyl-2′-trifluoromethyl-[1,1′-biphenyl]-4-yl)carbonyl]-10,11-dihydro-5H-pyrrolo[2,1-c][1,4]benzodiazepine-3-carboxylic acid methyl-((2S,3R,4R,5R)-2,3,4,5,6-pentahydroxy-hexyl)-amide]	3.43
Cc1cc(C(=O)N2Cc3ccc(C(=O)N(C)CC(O)CO)n3Cc3ccccc32)ccc1-c1ccccc1C(F)(F)F (stereo not shown) [Example 2, 10-[(2-Methyl-2′-trifluoromethyl-[1,1′-biphenyl]-4-yl)carbonyl]-10,11-dihydro-5H-pyrrolo[2,1-c][1,4]benzodiazepine-3-carboxylic acid (2,3-dihydroxy-propyl)-methyl-amide]	3.09
CC(=O)OCC(CN(C)C(=O)c1ccc2n1Cc1ccccc1N(C(=O)c1ccc(-c3ccccc3C(F)(F)F)c(C)c1)C2)OC(C)=O (stereo not shown) [Example 13, 2-(Acetyloxy)-1-({methyl[(10-{[2-methyl-2′-trifluoromethyl-[1,1′-biphenyl]-4-yl]carbonyl}-10,11-dihydro-5H-pyrrolo[2,1-c][1,4]benzodiazepin-3-yl)carbonyl]amino}methyl)ethyl acetate]	9.16
COc1cc(C(=O)N2Cc3ccc(C(=O)N(C)CC(O)CN(C)C)n3Cc3ccccc32)ccc1-c1ccccc1C(F)(F)F (stereo not shown) [Example 22, N-[(3-Dimethylamino)-2-hydroxy-propyl]-10-{[2-methoxy-2′-trifluoromethyl-[1,1′-biphenyl]-4-yl]carbonyl}-N-methyl-10,11-dihydro-5H-pyrrolo[2,1-c][1,4]benzodiazepine-3-carboxamide]	1.47
Cc1cc(C(=O)N2Cc3ccc(C(=O)N(C)CC4COC(=O)O4)n3Cc3ccccc32)ccc1-c1ccccc1C(F)(F)F (stereo not shown) [Example 11, 10-[(2-Methyl-2′-trifluoromethyl-[1,1′-biphenyl]-4-yl)carbonyl]-10,11-dihydro-5H-pyrrolo[2,1-c][1,4]benzodiazepine-3-carboxylic acid methyl-[(2-oxo-[1,3]dioxolan-4-yl)methyl]-amide]	3.66
